Active and inactive are the calls of the source.
Key:
[1] = molecular target: Glucose-6-phosphate 1-dehydrogenase (Homo sapiens, UniProt P11413); test: inhibition of Homo sapiens G6PD, dose series – biochemical, fluorescence, selectivity assay for P. falciparum G6PD inhibitor project, dose response (AID 504792); assay type: functional
[2] = molecular target: T1, Replicative DNA helicase DnaB (Mycobacterium tuberculosis, UniProt P9WMR3); test: DnaB intein splicing inhibitors, dose response, biochemical, cell-free fluorescence (AID 449749); assay type: functional
T1 sequence (P9WMR3 whole entry): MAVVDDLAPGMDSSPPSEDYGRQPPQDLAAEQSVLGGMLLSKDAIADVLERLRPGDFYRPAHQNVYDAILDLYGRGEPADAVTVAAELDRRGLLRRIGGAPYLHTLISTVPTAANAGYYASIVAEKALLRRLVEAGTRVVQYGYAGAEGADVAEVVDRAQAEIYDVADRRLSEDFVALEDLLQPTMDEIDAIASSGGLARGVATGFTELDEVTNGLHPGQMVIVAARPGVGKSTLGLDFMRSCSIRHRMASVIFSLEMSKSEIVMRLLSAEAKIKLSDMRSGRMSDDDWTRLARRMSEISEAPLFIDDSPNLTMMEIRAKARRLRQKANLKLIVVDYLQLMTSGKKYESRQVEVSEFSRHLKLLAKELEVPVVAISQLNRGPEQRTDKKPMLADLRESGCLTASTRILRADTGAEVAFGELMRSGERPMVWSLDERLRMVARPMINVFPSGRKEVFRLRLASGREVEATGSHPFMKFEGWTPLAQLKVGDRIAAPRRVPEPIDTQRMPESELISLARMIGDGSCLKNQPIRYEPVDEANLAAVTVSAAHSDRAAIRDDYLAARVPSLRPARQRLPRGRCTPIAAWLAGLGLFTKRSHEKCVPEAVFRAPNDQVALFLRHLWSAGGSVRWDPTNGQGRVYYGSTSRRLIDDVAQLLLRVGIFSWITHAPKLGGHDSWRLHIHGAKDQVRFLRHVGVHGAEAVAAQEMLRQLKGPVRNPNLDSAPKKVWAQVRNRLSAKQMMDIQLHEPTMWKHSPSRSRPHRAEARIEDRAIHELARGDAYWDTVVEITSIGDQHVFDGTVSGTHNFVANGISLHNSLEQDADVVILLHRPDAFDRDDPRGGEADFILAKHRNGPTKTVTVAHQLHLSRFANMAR

Protein RecA = molecular target: T2, Protein RecA (Mycobacterium tuberculosis, UniProt P9WHJ3); test: Fluorescence Cell-Free Homogeneous Dose Retest to Identify Inhibitors of RecA-Intein Splicing Activity. [Related pubchem assays (depositor defined):AID2097, AID2223, AID489010, AID492950]; assay type: functional
T2 sequence (P9WHJ3 whole entry): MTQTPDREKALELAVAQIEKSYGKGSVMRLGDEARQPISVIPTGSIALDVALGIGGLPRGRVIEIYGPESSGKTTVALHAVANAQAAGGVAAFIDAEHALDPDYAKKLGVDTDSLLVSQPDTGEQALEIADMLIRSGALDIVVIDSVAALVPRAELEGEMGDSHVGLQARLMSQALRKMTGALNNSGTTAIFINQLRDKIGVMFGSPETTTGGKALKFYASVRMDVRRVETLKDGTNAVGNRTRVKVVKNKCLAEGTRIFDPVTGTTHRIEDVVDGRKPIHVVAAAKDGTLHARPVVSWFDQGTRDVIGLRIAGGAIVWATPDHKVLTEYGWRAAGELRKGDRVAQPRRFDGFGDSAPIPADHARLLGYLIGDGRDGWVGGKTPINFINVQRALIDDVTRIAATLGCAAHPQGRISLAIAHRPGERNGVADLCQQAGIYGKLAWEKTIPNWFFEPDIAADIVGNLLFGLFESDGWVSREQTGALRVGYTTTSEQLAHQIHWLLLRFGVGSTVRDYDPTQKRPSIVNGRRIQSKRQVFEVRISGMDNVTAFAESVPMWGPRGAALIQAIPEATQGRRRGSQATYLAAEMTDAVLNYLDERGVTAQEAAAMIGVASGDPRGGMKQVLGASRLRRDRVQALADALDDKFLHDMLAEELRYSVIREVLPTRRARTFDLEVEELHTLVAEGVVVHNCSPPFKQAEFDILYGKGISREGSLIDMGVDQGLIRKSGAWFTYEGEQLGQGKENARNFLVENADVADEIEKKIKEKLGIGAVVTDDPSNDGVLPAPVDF

Trypsin = Trypsin (Sus scrofa, UniProt P00761); test: trypsin protease activity blockade – biochemical, quenched peptide fluorescence, cherry-pick, selectivity assay for Rce1 protease inhibitor project, dose response (AID 488789)
CAAX prenyl protease 2 [3] = molecular target: T3, CAAX prenyl protease 2 (Saccharomyces cerevisiae S288c, UniProt Q03530); assay type: biochemical
T3 sequence (Q03530 whole entry): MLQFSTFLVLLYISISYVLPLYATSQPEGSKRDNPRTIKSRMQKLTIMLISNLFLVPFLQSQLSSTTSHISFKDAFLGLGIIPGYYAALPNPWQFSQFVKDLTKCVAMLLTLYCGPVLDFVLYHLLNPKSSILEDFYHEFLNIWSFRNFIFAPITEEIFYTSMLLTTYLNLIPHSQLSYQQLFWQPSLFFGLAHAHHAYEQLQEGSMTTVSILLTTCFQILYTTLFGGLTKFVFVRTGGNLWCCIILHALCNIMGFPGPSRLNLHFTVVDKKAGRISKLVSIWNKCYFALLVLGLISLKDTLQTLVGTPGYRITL

CAAX prenyl protease 1 = CAAX prenyl protease 1 (Saccharomyces cerevisiae S288c, UniProt P47154); test: yeast CAAX protease Ste24 inhibition – biochemical, S. cerevisiae, plate reader, cherry-pick, dose response (AID 488815)
CAAX prenyl protease 2 [4] = molecular target: T4, CAAX prenyl protease 2 (Homo sapiens, UniProt Q9Y256); test: inhibition of Ras-converting CAAX protease Rce1 – biochemical, yeast membranes, quenched-peptide fluorescence, cherry-pick, dose response (AID 588849)
T4 sequence (Q9Y256 whole entry): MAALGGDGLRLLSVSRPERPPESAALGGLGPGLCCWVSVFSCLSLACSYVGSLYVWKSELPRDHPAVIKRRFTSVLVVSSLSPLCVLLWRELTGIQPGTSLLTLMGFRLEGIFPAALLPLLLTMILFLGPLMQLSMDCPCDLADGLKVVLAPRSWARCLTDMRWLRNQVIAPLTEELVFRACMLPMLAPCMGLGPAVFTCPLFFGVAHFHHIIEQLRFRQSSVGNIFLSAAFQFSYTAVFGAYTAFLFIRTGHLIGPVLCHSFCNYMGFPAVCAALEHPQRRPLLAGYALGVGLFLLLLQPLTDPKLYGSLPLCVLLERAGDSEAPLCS

[5] = Trypanosoma cruzi growth suppression in host cells – NIH3T3 host cells, beta-gal luminescence, confirmation (AID 2044); assay type: functional, cell-based;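 further: intracellular parasites grown in NIH/3T3 mouse fibroblasts as host cells; luminescent beta-galactosidase reporter signal from transgenic T. cruzi replicating inside host cells; inhibitors lower the luminescence signal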
[6] = NIH3T3 cell viability loss – ATP luminescence, mouse fibroblasts, counter-screen, dose response (AID 2010); assay type: functional, cell-based;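 further: cells exposed to compound for about 90 hours before reading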
[7] = molecular target: T5, Short transient receptor potential channel 4 (Mus musculus, UniProt Q9QUQ5); test: block of DAMGO-driven TRPC4 calcium entry – cell-based, HEK293 TRPC4/mu-opioid, Fluo-4 calcium, dose response (AID 434942); assay type: functional;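 further: potency of inhibitors blocking the TRPC4 calcium response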
T5 sequence (Q9QUQ5 whole entry): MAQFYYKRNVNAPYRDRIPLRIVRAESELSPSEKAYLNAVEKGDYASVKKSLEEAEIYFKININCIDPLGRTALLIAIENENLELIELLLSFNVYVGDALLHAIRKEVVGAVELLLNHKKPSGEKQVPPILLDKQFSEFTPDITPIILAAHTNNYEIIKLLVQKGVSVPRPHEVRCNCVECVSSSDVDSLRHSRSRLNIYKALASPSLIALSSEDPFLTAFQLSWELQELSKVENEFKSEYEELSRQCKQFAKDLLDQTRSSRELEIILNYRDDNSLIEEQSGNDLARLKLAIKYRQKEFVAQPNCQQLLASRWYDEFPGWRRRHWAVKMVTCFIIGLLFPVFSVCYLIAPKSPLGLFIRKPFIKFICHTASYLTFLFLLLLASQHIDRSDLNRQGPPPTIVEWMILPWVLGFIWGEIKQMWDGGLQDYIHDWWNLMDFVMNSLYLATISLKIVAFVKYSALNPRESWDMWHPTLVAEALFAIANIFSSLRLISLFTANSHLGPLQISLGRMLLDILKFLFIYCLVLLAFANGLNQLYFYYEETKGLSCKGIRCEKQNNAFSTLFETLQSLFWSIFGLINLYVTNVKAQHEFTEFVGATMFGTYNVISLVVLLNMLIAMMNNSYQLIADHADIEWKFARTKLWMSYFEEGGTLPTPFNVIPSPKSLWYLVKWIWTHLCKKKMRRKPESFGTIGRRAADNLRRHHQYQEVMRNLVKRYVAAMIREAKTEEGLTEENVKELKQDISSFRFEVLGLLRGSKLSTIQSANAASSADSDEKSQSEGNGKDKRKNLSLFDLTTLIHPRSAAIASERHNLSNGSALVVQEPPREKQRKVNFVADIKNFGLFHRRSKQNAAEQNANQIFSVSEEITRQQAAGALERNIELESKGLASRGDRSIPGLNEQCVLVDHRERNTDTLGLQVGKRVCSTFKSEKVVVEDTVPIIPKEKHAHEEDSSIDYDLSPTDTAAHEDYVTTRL

Jurkat = test: blockers of NF-kB activation in T cells – Jurkat, luciferase reporter, luminescence, B- and T-cell, dose response (AID 489004); assay type: functional, cell-based; details: Homo sapiens;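 further: NF-kB luciferase reporter Jurkat cells stimulated with PMA plus ionomycin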
[8] = HEK-293T viability loss, compound-treated – cell-based, uHTS hits, cytotoxicity control for B/T-cell NF-kB inhibitor project, dose response (AID 489019); assay type: functional;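 further: IC50 reflects cytotoxicity as loss of cell viability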
INS1 = test: INS-1E survival protection against cytokine death – cell-based, luminescence, retest, dose response (AID 449756); assay type: functional; details: Rattus norvegicus;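 further: cell death triggered by IL-1 beta plus TNF-alpha plus IFN-gamma mixture; protective hits raise ATP signal compared with cytokine alone wells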
[9] = molecular target: Luciferin 4-monooxygenase (Photinus pyralis, UniProt P08659); test: inhibition of purified Photinus pyralis luciferase – biochemical, luminescence, dose response (AID 1891)
[10] = Luminescence Cell-Based Dose Confirmation HTS to Identify Inhibitors of Platelet Dense Granule Release. [Related pubchem assays: 1663 (Primary HTS), 1678 (Summary of Project)]; assay type: functional
[11] = molecular target: Heat shock protein HSP 90-alpha (Homo sapiens, UniProt P07900); assay type: functional, organism-based
[12] = reduction of Shn3 3'UTR-driven luciferase in osteoblasts – cell-based, Clone20 osteoblasts, firefly luciferase, cherry-picked, dose response (AID 624132); assay type: functional;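 further: firefly luciferase luminescence from reporter carrying the Shn3 3'UTR in osteoblasts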
[13] = loss of viability in HepG2 cells – cell-based, CellTiter-Glo, cherry-picked, cytotoxicity control for Shn3 inhibitor project, dose response (AID 624134); assay type: functional
[14] = non-specific 3'UTR reporter inhibition in Clone20-Shn3RL – cell-based, Renilla luciferase, cherry-picked, counter-screen for Shn3 inhibitor project, dose response (AID 624133); assay type: functional
[15] = A549 cell cytotoxicity, dose response, cytotoxicity control, plate reader, cherry-pick, antagonist series (AID 743412); assay type: functional, cell-based
[16] = toxicity toward HepG2 liver cells – cell-based, plate reader, cherry-pick, antagonist series, cytotoxicity control, dose response (AID 743416); assay type: functional
[17] = blockers of bursicon-stimulated LGR2 cAMP reporter – cell-based, HEK293, CRE-luciferase reporter, cherry pick, set 2, dose response (AID 743343); assay type: functional;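 further: transfected cells were stimulated with diluted bursicon conditioned medium after compound addition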
[18] = blockade of melanocortin 4 receptor signaling – cell-based, plate reader, cherry pick, counter-screen for LGR2 antagonist project, dose response (AID 743444); assay type: functional;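 further: transfected HEK 293 cells stimulated with alpha-MSH peptide; potency of inhibitors of the alpha-MSH evoked signal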
[19] = viability loss in HEK293 cells – cell-based, plate reader, cherry-picked samples, cytotoxicity control, dose response (AID 743446); assay type: functional

Chain of Trypsin (P00761 whole entry): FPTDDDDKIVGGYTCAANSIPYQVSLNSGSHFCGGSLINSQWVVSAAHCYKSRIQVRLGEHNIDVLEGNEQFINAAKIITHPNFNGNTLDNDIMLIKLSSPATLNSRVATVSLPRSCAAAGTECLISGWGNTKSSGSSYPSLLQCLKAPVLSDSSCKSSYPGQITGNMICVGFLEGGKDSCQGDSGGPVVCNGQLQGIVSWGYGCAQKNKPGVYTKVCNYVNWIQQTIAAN
Chain of CAAX prenyl protease 1 (P47154 whole entry): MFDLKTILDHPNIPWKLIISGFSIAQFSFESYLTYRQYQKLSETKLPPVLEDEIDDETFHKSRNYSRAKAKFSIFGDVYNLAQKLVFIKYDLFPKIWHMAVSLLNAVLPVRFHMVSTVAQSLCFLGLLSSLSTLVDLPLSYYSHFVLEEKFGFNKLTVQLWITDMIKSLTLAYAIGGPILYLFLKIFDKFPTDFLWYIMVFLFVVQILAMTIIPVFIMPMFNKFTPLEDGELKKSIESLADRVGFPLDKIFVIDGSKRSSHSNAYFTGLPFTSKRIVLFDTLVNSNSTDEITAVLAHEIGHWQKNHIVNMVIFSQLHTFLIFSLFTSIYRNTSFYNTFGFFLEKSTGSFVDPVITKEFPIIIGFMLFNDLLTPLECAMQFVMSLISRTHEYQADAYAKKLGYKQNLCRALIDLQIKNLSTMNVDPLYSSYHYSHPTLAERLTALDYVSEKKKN
Chain of Luciferin 4-monooxygenase (P08659 whole entry): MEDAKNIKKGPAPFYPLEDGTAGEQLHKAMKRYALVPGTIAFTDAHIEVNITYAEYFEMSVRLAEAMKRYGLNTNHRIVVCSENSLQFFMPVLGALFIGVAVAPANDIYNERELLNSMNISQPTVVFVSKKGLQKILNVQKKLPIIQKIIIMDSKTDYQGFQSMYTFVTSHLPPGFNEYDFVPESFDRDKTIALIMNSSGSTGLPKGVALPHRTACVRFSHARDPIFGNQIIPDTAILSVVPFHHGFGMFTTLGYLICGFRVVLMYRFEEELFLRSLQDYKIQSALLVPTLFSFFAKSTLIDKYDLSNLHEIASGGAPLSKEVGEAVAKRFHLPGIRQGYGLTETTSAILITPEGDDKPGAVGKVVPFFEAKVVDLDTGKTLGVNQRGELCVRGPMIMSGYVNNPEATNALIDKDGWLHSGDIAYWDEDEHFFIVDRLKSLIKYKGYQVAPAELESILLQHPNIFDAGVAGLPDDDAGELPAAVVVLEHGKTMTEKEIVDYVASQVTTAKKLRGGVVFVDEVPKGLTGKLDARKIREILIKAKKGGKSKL
Chain of Glucose-6-phosphate 1-dehydrogenase (P11413 whole entry): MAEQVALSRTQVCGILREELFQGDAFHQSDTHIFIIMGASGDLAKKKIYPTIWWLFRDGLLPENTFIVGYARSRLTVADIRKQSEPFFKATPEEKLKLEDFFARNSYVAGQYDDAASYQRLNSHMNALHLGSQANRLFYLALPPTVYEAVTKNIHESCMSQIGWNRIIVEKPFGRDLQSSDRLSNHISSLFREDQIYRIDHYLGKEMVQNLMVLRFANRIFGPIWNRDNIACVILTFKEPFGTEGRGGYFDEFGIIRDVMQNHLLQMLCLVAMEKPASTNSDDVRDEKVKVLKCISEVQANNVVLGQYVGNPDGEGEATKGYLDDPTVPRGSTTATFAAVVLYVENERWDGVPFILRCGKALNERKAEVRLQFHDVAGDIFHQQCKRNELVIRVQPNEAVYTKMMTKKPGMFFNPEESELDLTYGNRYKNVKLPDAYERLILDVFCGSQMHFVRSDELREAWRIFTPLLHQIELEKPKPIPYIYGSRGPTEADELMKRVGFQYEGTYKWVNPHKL

## Cc1ccc(S(=O)(=O)N(C(=O)c2ccncc2)c2ccc(OC(=O)c3ccncc3)c3ccccc23)cc1
[1]
  IC50: > 80 µM (inactive)
[2]
  AC50: 1.51 µM (active)
Protein RecA
  EC50: 0.315 µM (active)

## C[n+]1ccc(-c2ccccc2)c2ccccc21
Trypsin
  AC50: 23.1 µM (active)
CAAX prenyl protease 2 [3]
  AC50: 54.7 µM (active)
CAAX prenyl protease 1
  AC50: 2.18 µM (active)
CAAX prenyl protease 2 [4]
  AC50: 5.8 µM (active)

## CCCCC[n+]1cccc2c3ccccc3ccc21
[5]
  EC50: 0.466 µM (active)
[6]
  EC50: > 30 µM (not active)
Trypsin
  AC50: 8.59 µM (active)
[7]
  EC50: 3.35 µM (active)
Jurkat
  IC50: > 80 µM (inactive)
CAAX prenyl protease 2 [3]
  AC50: > 100 µM (inactive)
[8]
  IC50: > 80 µM (inactive)
CAAX prenyl protease 1
  AC50: 4.72 µM (active)
INS1
  AC50: 4.56 µM (active)
CAAX prenyl protease 2 [4]
  AC50: 7.74 µM (active)

## COc1ccc(-c2nc(-c3ccccn3)no2)cc1
[9]
  EC50: 0.548 µM (active)
[10]
  EC50: 2.15 µM (active)
Jurkat
  IC50: 0.88 µM (active)
[8]
  IC50: > 80 µM (inactive)
[11]
  AC50: 20.4 µM (active)
INS1
  AC50: 3.81 µM (active)
[12]
  AC50: 1.92 µM (active)
[13]
  AC50: 7.01 µM (active)
[14]
  AC50: 26.9 µM (active)
[15]
  AC50: 3.8 µM (active)
[16]
  AC50: 3.7 µM (active)
[17]
  AC50: 0.415 µM (active)
[18]
  AC50: 0.504 µM (active)
[19]
  AC50: 3.26 µM (active)
